Data as given in patent US10526369B2, “Oxidative modification improves the drugability of cell penetrating peptides as drug carriers” (JOWIN BIOPHARMA, priority 2016, dated 2020).
Where a SMILES comes first, the peptide text is derived from it. Bridges are numbered along the chain shown (N, C = ends). Roman numbers before positions name the chains, in order. Where no end group is shown, it is not given here. The star is where a group is joined. FITC = O=C1OC2(c3ccc(O)cc3Oc3cc(O)ccc32)c2ccc(NC(=S)*)cc21; 5FAM = O=C1OC2(c3ccc(O)cc3Oc3cc(O)ccc32)c2ccc(C(=O)*)cc21

Assays:
[1] = Stability of peptides in mice serum (HPLC of remaining peptide, t1/2 by CompuSyn); assay type: in vitro ADME; conditions: for Fold increase (of t1/2 compared with CPPecp): t1/2 of CPPecp set as one-fold; for half-life: mouse
Experimental: FIG. 1 illustrates the stability of CPPecp in mice serum. CPPecp was dissolved in 1× PBS (4 mg/ml) and incubated with equal volume of mice serum (final 50%) for different time points (0, 2, 5, 15, 30, 60 min, respectively). The reaction was terminated by the addition of an equal volume of TCA solution (final 50%) and denatured serum proteins were removed by centrifugation. The supernatant was then assayed by HPLC to quantify the remaining CPPecp. Zero time point was set as 100 percent of remaining CPPecp and relative amounts of CPPecp in each time point were calculated. Data represent the mean±SD (standard deviation) of three independent experiments. The t1/2 of CPPecp was calculated by CompuSyn.
FIG. 2 illustrates comparison of stabilities between CPPecp and N-terminal FITC-conjugated CPPecp in mice serum. Both were dissolved in dH2O (0.5 mg/ml) and incubated with equal volume of 20% mice serum (final 10%) for different time points (0, 2, 5, 15, 30, 60 min, respectively). The reactions were terminated by the addition of an equal volume of TCA solution (final 50%) and denatured serum proteins were removed by centrifugation. The supernatants were assayed by HPLC to quantify the remaining peptides. Zero time point was set as 100 percent of remaining peptides and relative amounts of peptides in each time point were calculated. The t1/2, of CPPecp and N-terminal FITC-CPPecp were calculated by CompuSyn.
FIG. 3 illustrates stabilities of N-terminal (5-FAM)-CPPecp-CPPecp (A) and N-terminal Ac-CPPecp (B) in mice serum. Both modified peptides were dissolved in dH2O (0.5 mg/ml) and incubated with equal volume of 20% mice serum (final 10%) for different time points (0-24 hours for (5-FAM)-CPPecp-CPPecp and 0-60 min for Ac-CPPecp, respectively). The reactions were terminated by the addition of an equal volume of TCA solution (final 50%) and denatured serum proteins were removed by centrifugation. The supernatants were assayed by HPLC to quantify the remaining peptides. Zero time point was set as 100 percent of remaining peptides and relative amounts of peptides in each time point were calculated. The t1/2 of N-terminal (5-FAM)-CPPecp-CPPecp and N-terminal Ac-CPPecp were calculated by CompuSyn.
FIG. 5 illustrates comparison of stabilities between CPPecp (A) and CPPecp-dimer (B) in mice serum. Both peptides were dissolved in 1× PBS (4 mg/ml) and incubated with equal volume of mice serum (final 50%) for different time points (0-60 min for CPPecp and 0-48 hours for CPPecp-dimer, respectively). The reactions were terminated by the addition of an equal volume of TCA solution (final 50%) and denatured serum proteins were removed by centrifugation. The supernatants were assayed by HPLC to quantify the remaining peptides. Zero time point was set as 100 percent of remaining peptides and relative amounts of peptides in each time point were calculated. Data represent the mean±SD (standard deviation) of three independent experiments. The t1/2, of CPPecp and CPPecp-dimer were calculated by CompuSyn.
The unmodified CPPecp (NH2-NYRWRCKNQN-COOH (SEQ. ID NO:2)) was synthesized by MISSION BIOTECH Inc. in TAIWAN. To determine the stability of unmodified CPPecp in mice serum, 100 μl of CPPecp (0.5 mg/ml or 4 mg/ml) was mixed with equal volume of whole mice serum (strain: CD-1 (ICR), final 50%) and incubated at room temperature for 0, 2, 5, 15, 30 and 60 min. The reaction was stopped by adding 200 μl of 100% TCA solution and vortexed for 5 seconds to precipitate serum proteins. Denatured serum proteins were removed by centrifugation at 18000 x g, 4° C. for 2 mins. The supernatants were analyzed by HPLC (column: Purospher® STAR RP-18e, eluent A: 0.1% TFA in dH2O, eluent B: 0.1% TFA in acetonitrile, flow rate: 1ml/min, gradient: 2-35% of eluent B in 15 min, UV wavelength: 280 nm). Zero-time point was set as one hundred percent of remaining CPPecp and relative amount of CPPecp in each time point were calculated. The t1/2 of CPPecp was calculated by CompuSyn (ver. 1.0). […]

NCI-H460 cells = assay: Heparan sulfate binding assay on cells (fluorescence spectrophotometer); assay type: cell-based; conditions: NCI-H460 cells pre-incubated with heparanase 5 U/ml, 37° C., 2 hours
Experimental: FIG. 7 illustrates binding specificity of CPPecp and CPPecp-dimer on NCI-H460 cells. Before treatment, each well (96-well plate) was blocked by 2% of BSA at 4° C. for 1 hour, and washed with PBS once. After blocking, NCI-H460 cells were incubated with 0.625, 1.25 and 2.5 μM of FITC-CPPecp and FITC-CPPecp dimer at 4° C. for 1 hour. After washing with PBS, the binding of FITC-CPPecp and FITC-CPPecp dimer were measured by fluorescence spectrophotometer (A). To test binding specificity, cells were incubated with heparanase (5 U/ml) at 37° C. for 2 hours before peptide incubation (B and C). Total peptide inputs (binding and washout) were set as 100 percent and the relative binding of FITC-CPPecp and FITC-CPPecp dimer were calculated. The data represented the means of triplicate incubations. […]
In order to certify if the specific binding affinity to heparan sulfate of disulfide linked CPPecp-dimer is still maintained as original CPPecp, the heparan sulfate binding affinity was investigated by FITC-conjugated CPPecp monomer and dimer, and measured by fluorescence spectrophotometer. […] After rinse, each well was refilled with 100 μl of 1× PBS and the fluorescence intensity was measured by fluorescence spectrophotometer (excitation: 485 nm; emission: 521 nm) as binding partition. Unbound and rinsed out peptides were obtained by adding up the fluorescence intensity of culture medium and buffer. […]

[2] = tested on: lung cancer cell lines: A549, NCI-H460 and NCI-H441; assay: Toxicity in lung cancer cell lines (cell viability, MTS assay); assay type: cell-based; conditions: 0.3-30 μM, 72 hours
Experimental: FIG. 8 illustrates toxicities of CPPecp and CPPecp-dimer in different lung cancer cell lines. Cells were incubated with CPPecp and CPPecp-dimer in different concentrations (0, 0.3, 1, 3, 10 and 30 μM) at 37° C. for 72 hours. Cell viabilities were measured by MTS assay. The 0 μM of CPPecp (vehicle control) was set as 100 percent and the relative viabilities in each concentration were calculated.
In order to investigate the application potential of CPPecp-dimer as a drug carrier, the toxicity of CPPecp-dimer was tested and CPPecp monomer was compared in three lung cancer cell lines: A549, NCI-H460 and NCI-H441. Lung cancer cell lines were seeded in 96-well plates (2*10^3/well) and incubated overnight. After adhesion, cells were incubated with different concentrations of CPPecp and CPPecp dimer (0, 0.3, 1, 3, 10 and 30 μM) for 72 hours. Cell viabilities were determined by MST assay (Promega Corp.). The cells without treatment were set as control and 100 percent and the relative viabilities in each concentration were calculated.

[3] = mice serum, final 10%, peptide 0.5 mg/ml in dH2O
[4] = mice serum (CD-1 (ICR)), final 50%, room temperature

Molecule	Fold increase (of t1/2 compared with CPPecp) ([1]; mice serum)	half-life [1, 3]	half-life [1, 4]	increase of the stability of CPPecp ([1]; mice serum, final 50%)	stability compared with unmodified CPPecp (in words) ([1]; mice serum, final 10%)	binding percentage after heparanase treatment (NCI-H460 cells)	effect on cell viabilities [2]
N=C(N)NCCC[C@H](NC(=O)[C@H](Cc1ccc(O)cc1)NC(=O)[C@H](CC(N)=O)NC(=O)c1ccc2c(c1)C(=O)OC21c2ccc(O)cc2Oc2cc(O)ccc21)C(=O)N[C@@H](Cc1c[nH]c2ccccc12)C(=O)N[C@@H](CCCNC(=N)N)C(=O)N[C@@H](CS)C(=O)N[C@@H](CCCCN)C(=O)N[C@@H](CC(N)=O)C(=O)N[C@@H](CCC(N)=O)C(=O)N[C@@H](CC(N)=O)C(=O)N[C@@H](CC(N)=O)C(=O)N[C@@H](Cc1ccc(O)cc1)C(=O)N[C@@H](CCCNC(=N)N)C(=O)N[C@@H](Cc1c[nH]c2ccccc12)C(=O)N[C@@H](CCCNC(=N)N)C(=O)N[C@@H](CS)C(=O)N[C@@H](CCCCN)C(=O)N[C@@H](CC(N)=O)C(=O)N[C@@H](CCC(N)=O)C(=O)N[C@@H](CC(N)=O)C(=O)O [(5-FAM)-CPPecp-CPPecp] (5FAM-NYRWRCKNQNNYRWRCKNQN-OH; N-terminus and C-terminus assumed)	+720%	19.2 min			prolonged its stability from 2 to 24 hours		
Ac-NYRWRCKNQN [Ac-CPPecp]	−24%	1.79 min					
H-NYRWRCKNQN-OH [CPPecp, NH2-NYRWRCKNQN-COOH (SEQ. ID NO:2), reference compound]	0%		2.34 min				no inhibitory effect

The next lines start with results.

Fold increase (of t1/2 compared with CPPecp) ([1]; mice serum)	half-life [1, 3]	half-life [1, 4]	increase of the stability of CPPecp ([1]; mice serum, final 50%)	Molecule	stability compared with unmodified CPPecp (in words) ([1]; mice serum, final 10%)	binding percentage after heparanase treatment (NCI-H460 cells)	effect on cell viabilities [2]
+40%	3.28 min			N=C(N)NCCC[C@H](NC(=O)[C@H](Cc1c[nH]c2ccccc12)NC(=O)[C@H](CCCNC(=N)N)NC(=O)[C@H](Cc1ccc(O)cc1)NC(=O)[C@H](CC(N)=O)NC(=S)Nc1ccc2c(c1)C(=O)OC21c2ccc(O)cc2Oc2cc(O)ccc21)C(=O)N[C@@H](CS)C(=O)N[C@@H](CCCCN)C(=O)N[C@@H](CC(N)=O)C(=O)N[C@@H](CCC(N)=O)C(=O)N[C@@H](CC(N)=O)C(=O)O [FITC-CPPecp] ({FITC}-NYRWRCKNQN-OH; C-terminus assumed)	not improved	decreased binding percentage	
+17900%		420 min	up to 180 fold	N=C(N)NCCC[C@H](NC(=O)[C@H](Cc1c[nH]c2ccccc12)NC(=O)[C@H](CCCNC(=N)N)NC(=O)[C@H](Cc1ccc(O)cc1)NC(=O)[C@@H](N)CC(N)=O)C(=O)N[C@@H](CSSC[C@H](NC(=O)[C@H](CCCNC(=N)N)NC(=O)[C@H](Cc1c[nH]c2ccccc12)NC(=O)[C@H](CCCNC(=N)N)NC(=O)[C@H](Cc1ccc(O)cc1)NC(=O)[C@@H](N)CC(N)=O)C(=O)N[C@@H](CCCCN)C(=O)N[C@@H](CC(N)=O)C(=O)N[C@@H](CCC(N)=O)C(=O)N[C@@H](CC(N)=O)C(=O)O)C(=O)N[C@@H](CCCCN)C(=O)N[C@@H](CC(N)=O)C(=O)N[C@@H](CCC(N)=O)C(=O)N[C@@H](CC(N)=O)C(=O)O [CPPecp-dimer] (I: H-NYRWRCKNQN-OH / II: H-NYRWRCKNQN-OH; disulfide I:6-II:6)			no inhibitory effect
